The values below come from ChEMBL document CHEMBL6182882, “Evodiamine-Based Nitroreductase Responsive Theranostic Agents for Treatment of Colon Cancer” (J Med Chem, 2025).

One series relates to HCT-116. As to the kind of experiment: Antitumor activity against human HCT-116 cells xenografted in male nude mouse assessed as tumor growth inhibition at 0.5 mg/kg, ip administered twice daily for 14 consecutive days. Particulars: read-out: TGI. The format is functional.
Series [1] can be described thus: Toxicity in male nude mouse assessed as change in body weight at 0.5 mg/kg, ip administered twice daily for 14 consecutive days. The format is organism-based. Particulars: in vivo.
A short description of series [2]: Prodrug activation in phosphate buffer saline at pH 7.4 assessed as Escherichia coli nitroreductase mediated 3-fluoro-10-hydroxy-14-methyl-8,13,13b,14-tetrahydroindolo[2',3':3,4]pyrido[2,1-b]quinazolin-5(7H)-one formation by measuring fluorescence emission intensity at 25 uM incubated for 2 hrs in presence of NADH by fluorescence spectrophotometric analysis. Particulars: isolated protein, pH 7.4, 2 h.

`CC[C@@]1(O)C(=O)OCc2c1cc1n(c2=O)Cc2cc3c(CN(C)C)c(O)ccc3nc2-1` [TOPOTECAN]: the inhibition in vivo at 0.5 mg/kg in the series with HCT-116 turned out to be 82.5%. Besides, in series [1], the Activity entry was “Toxic”.
For `CN1c2ccc(F)cc2C(=O)N2CCc3c([nH]c4ccc(OC(=O)CCC(=O)OCc5cc6ccc(OCc7ccc([N+](=O)[O-])cc7)cc6oc5=O)cc34)C21` (centres undefined), the Drug metabolism entry in series [2] is listed as “metabolite_detected”.
With `CN1c2ccc(F)cc2C(=O)N2CCc3c([nH]c4ccc(OC(=O)/C=C/C(=O)OCc5cc6ccc(OCc7ccccc7)cc6oc5=O)cc34)C21` (centres undefined), the Drug metabolism result in series [2] is “metabolite_notdetected”.
